In article PMC7961786, “Magic Peptide: Unique Properties of the LRR11 Peptide in the Activation of Leukotriene Synthesis in Human Neutrophils” (International Journal of Molecular Sciences, 2021):

Assays:
CpG-ODNs = settings: ref [8]; cited from earlier work
Text: (§1) In neutrophils, bacteria and pathogen-associated molecular patterns (PAMPs) that are expressed by microorganisms are recognized by Toll-like receptors (TLRs). In particular, the mechanisms of immunoregulatory activity of CpG-containing bacterial or synthetic DNA fragments include their interaction with TLR9 receptors, known as DNA sensors. Therefore, synthetic peptides that mimics DNA recognizing regions of the receptor can be effective modulators of neutrophil cell responses. The crystal structure of TLR9 was analyzed and it was predicted that leucine-rich repeats (L ...

[1] = test system: mouse-derived monocyte/macrophage cell line RAW 264.7; settings: ref [9]; cited from earlier work
Text: as §1

[2] = test system: TLR9 signaling in RAW 264.7; settings: ref [9]; cited from earlier work
Text: as §1

PMNLs = experiment: Neutrophil adhesion to fibrinogen-coated plates; type: cell-based, human; settings: 1 µM ODN +/- 1 µM LRR11, 20 min, 37 °C, n = 3, Figure S2a
Experimental: Figure S2a. Effects of ODNs and LRR11 peptide on neutrophil adhesiveness. PMNLs (10^6 cells/probe in HBSS/HEPES) supplemented with 1 µM ODN +/- 1 µM LRR11, except for control samples containing HBSS/HEPES instead of ODNs, were incubated in fibrinogen-coated 24-well plates for 20 min at 37 °C in 5 % CO2. The supernatants were then carefully removed, and wells were washed twice with warm PBS to remove unattached cells. Adhesion quantitative assessment was carried out as described in [59]. Briefly, hydrogen peroxide (4 mM final concentration) in permeabilizing buffer (67 mM Na2HPO4, 35 mM citric acid, 0.1% Triton X-100) supplemented with 5.5 mM ortho-phenylenediamine was added to the attached PMNLs for 5 min. The reaction was stopped by adding of 1M H2SO4, followed by recording the absorption values at 492 nm and comparing them with the calibration values. Data are means ± SEM of attached cells amounts, as the percentages of PMNLs initially contained in the samples (n=3; *p < 0.05; **p < 0.01 in comparison with corresponding controls, as indicated by two-way ANOVA followed by Dunnett’s multiple comparison test). […]

NeutrAvidin [3] = experiment: TSM acoustic biosensor, unspecific binding to NeutrAvidin in the absence of ODNs
Text: To characterize the interaction of the studied synthetic ODNs with the LRR11 peptide, we applied the thickness shear mode (TSM) acoustic biosensor method, which is based on the investigation of ultrasonic waves in piezoelectric materials such as AT-cut quartz. This approach involved immobilizing a 5′-biotinylated ODN on the surface of TSM transducer covered by NeutrAvidin and then adding the LRR11 peptide. An unrelated peptide (URP) with a random primary structure ([…]) was used as a negative control. The measurement procedure was divided into several steps, in which each immobilization stage was followed by washing with an appropriate buffer solution; when peptide solutions at different concentrations (from 1 to 100 nM) were added to the surface-modified TSM transducer, a wash with Hanks buffer was used before increasing the peptide concentration.
Eight MHz AT-cut piezoelectric quartz crystal transducer was obtained from CH Instruments, Austin, TX, USA. The transducer was covered on both sides with thin layers of gold that served as electrodes (working area 0.2 cm^2). Prior ODNs immobilization, the crystal was carefully cleaned with basic Piranha solution (29% NH3, 30% H2O and H2O2 with volumetric 1:5:1 ratio, respectively) for 25 min. After the thorough cleaning, the crystal was positioned between two silicon O-rings in a flow-through cell. […]

NeutrAvidin [4] = experiment: TSM acoustic biosensor, immobilization of 5′-biotinylated C-CpG on NeutrAvidin surface; type: binding; settings: Sauerbrey's equation, 1 μM 5′-biotinylated ODN on NeutrAvidin
Text: Using Sauerbrey’s Equation (2), (2) Δf=−2f02Δm/Aμqρq where f0 is the fundamental resonance frequency (in our case 8 MHz), Δm is the change in mass (in grams) of the adsorbed layer on the crystal surface, A is the effective crystal area (in our case 0.2 cm^2), μq = 2.947 × 10^11 g × cm^−1s^−2 is the shear modulus of elasticity, and ρq = 2.648 g × cm^−3 is the crystal density, surface concentrations of NeutrAvidin, ODN and LRR11 peptide were estimated based on changes of resonance frequency (Figure 4). According to Equation (2), the surface density of molecules, σ (in molecules/cm^2), can be calculated as σ = ΔmNA/(A × Mw), where NA is Avogadro’s number (=6.023 × 10^23 mol^−1), and Mw represents the molecular weight of the corresponding compound (NeutrAvidin: 65 kDa, 5′-biotinylated C-CpG: 7115.4 Da, and LRR11: 3421 Da). Based on this approach, we obtained the following surface concentration values: 1.94 × 10^13 cm^−2 for NeutrAvidin, 3.37 × 10^13 cm^−2 for C-CpG and 2.4 × 10^13 cm^−2 for LRR11. The NeutrAvidin has four binding sites, two of which are available for biotinylated ODN binding. This is due to the fact that the other two sites are inaccessible due to NeutrAvidin chemisorption on the TSM surface. Thus, the number of available binding sites for the ODN is 3.88 × 10^13 cm^−2. […] Therefore, the surface of the TSM transducer is practically completely saturated by C-CpG. […]

QLRKLNLSFNYQKRVSFAHLSLAPSFGSLV [LRR11, 30 amino acid peptide from leucine-rich repeat of TLR9]
binding to CpG-ODNs (CpG-ODNs): can bind to the CpG-ODNs
effect on oligonucleotide internalization [1]: decrease in the oligonucleotide internalization
effect on TLR9 signaling [2]: attenuating of TLR9 signaling
effect on PMNL adhesion (PMNLs): LRR11 did not affect this
unspecific binding to NeutrAvidin (NeutrAvidin [3]): no unspecific biding

5′-tcgtcgttttcggcgcgcgccg-3′ (DNA TCGTCGTTTTCGGCGCGCGCCG; chemistry not fully specified) [C-CpG]
surface concentration of C-CpG (NeutrAvidin [4]): 3.37 × 10^13 cm^−2
